From ChEMBL document CHEMBL1201862, “PubChem BioAssay data set” (2004) come the findings set out here.

Among the test systems are DMS-273; SNB-78; M19-MEL; RXF 631; LXFL 529; DMS-114; DLD-1; XF498; HOP-18.
Holding throughout (assay): NCI-60 cell line screen, 48 h

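Interpolation was linear, between the two tested concentrations surrounding the appropriate level; five concentrations were tested over 48 hours in 96-well plates. GI50 marks 50% less growth.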 Active and inactive are the calls of the source. No stated cut-off is given here; in the data, active = GI50 up to about 1.1 µM and inactive = higher.

In the case of `O=C(c1ccccc1)C(c1ccccc1)C1(O)C(=O)Nc2ccc(Br)cc21` (stereo not drawn), the GI50 was 31.6 µM (inactive) in the test on DMS-273; > 100 µM (inactive) in the test on SNB-78; 15.4 µM (inactive) in the test with M19-MEL; 33.7 µM (inactive) in the test with RXF 631; 19.8 µM (inactive) with LXFL 529; 21.6 µM (inactive) in the test with DMS-114. Besides, the GI50 in the test with DLD-1 is 48.2 µM (inactive).
For the molecule `O=C1N(c2ccc(Cl)cc2)C(=O)C2(SC=NN2Cc2ccccc2)N1c1ccc(Cl)cc1` (stereo not drawn), the GI50 in the test with XF498 was 28.6 µM (inactive); in the test with HOP-18, > 100 µM (inactive); in the test on SNB-78, > 100 µM (inactive); with M19-MEL, > 100 µM (inactive); in the test on RXF 631 it was > 100 µM (inactive); in the test on LXFL 529, > 100 µM (inactive). The GI50 is 12.3 µM (inactive) in the test with DMS-114 and > 100 µM (inactive) in the test with DLD-1.
Take `C/C(=N\NC(=S)NC(CCC(=O)O)C(=O)O)c1ccccn1` (stereo not drawn): the GI50 in the test with XF498, with HOP-18, in the test on SNB-78, in the test with M19-MEL, with RXF 631 and in the test with LXFL 529 was > 100 µM (inactive) each time. Also, the GI50 with DMS-114 and in the test on DLD-1 was > 100 µM (inactive) each time.
For `O=C(Nc1ccccc1)OCc1nc2c([nH]1)C(=O)C=CC2=O`, the GI50 with DMS-273 was 24.2 µM (inactive); with XF498 it was 17.2 µM (inactive); in the test with HOP-18 it was 10.5 µM (inactive); in the test on SNB-78, 23.2 µM (inactive); in the test on M19-MEL it was 16 µM (inactive); with LXFL 529 it was 3.1 µM (inactive). Further, the GI50 in the test on DLD-1 is > 100 µM (inactive).
In the case of `O=C(c1nc2ccc(Cl)cc2nc1O)C(O)c1ccc2c(c1)OCO2` (stereo not drawn), the GI50 is > 100 µM (inactive) with DMS-273; > 100 µM (inactive) in the test on XF498; 12.8 µM (inactive) with HOP-18; > 100 µM (inactive) in the test with M19-MEL; > 100 µM (inactive) in the test on RXF 631; 77.6 µM (inactive) in the test on LXFL 529. Besides, the GI50 in the test on DMS-114 was 8.43 µM (inactive); with DLD-1, > 100 µM (inactive).
Take `CC(=O)O[C@H]1C(=O)O[C@@H]2C[C@H]3C(C)=CC(=O)[C@@H](O)[C@]3(C)[C@H]3[C@@]4(O)OC[C@]32[C@@H]1[C@@H](C)[C@H]4O`: the GI50 in the test with DMS-273 was 0.0264 µM (active); in the test on XF498, 0.031 µM (active); in the test with HOP-18, 0.177 µM (active); with SNB-78 it was 0.0515 µM (active); in the test with M19-MEL, 0.0272 µM (active); in the test with DMS-114, 0.0253 µM (active). Besides, in the test on DLD-1, the GI50 was 0.03 µM (active).
`COC(=O)/C(=N\NC(=O)c1ccccc1O)C(C#N)c1ccc(Cl)cc1` (stereo not drawn): the GI50 was 69.3 µM (inactive) in the test with HOP-18; 26.2 µM (inactive) in the test with SNB-78; 75.9 µM (inactive) in the test on M19-MEL; 36.1 µM (inactive) in the test with RXF 631; 34.3 µM (inactive) with LXFL 529; 24.7 µM (inactive) in the test with DMS-114. Besides, the GI50 with DLD-1 is 24.5 µM (inactive).
For `O=C(CSc1nnc(-c2ccc(/N=C\c3ccc(Cl)cc3)cc2)o1)Nc1ccc([N+](=O)[O-])cc1`, the GI50 was 16.5 µM (inactive) with DMS-273; 22.9 µM (inactive) in the test on XF498; 29 µM (inactive) in the test on HOP-18; 20 µM (inactive) with SNB-78; 17.1 µM (inactive) in the test with M19-MEL; 15.8 µM (inactive) in the test on LXFL 529. Further, the GI50 in the test on DMS-114 is 16.2 µM (inactive).
In the case of `O=C1C2=C(c3ccccc31)C(c1ccccc1)N1C(=O)CSC1=N2` (stereo not drawn), the GI50 in the test with DMS-273 is 55.8 µM (inactive); in the test on XF498 it was > 100 µM (inactive); in the test with M19-MEL, > 100 µM (inactive); in the test on RXF 631 it was 80.9 µM (inactive); in the test with LXFL 529 it was 52 µM (inactive); in the test on DMS-114 it was 43.1 µM (inactive). The GI50 in the test on DLD-1 is > 100 µM (inactive).
Consider `CCOc1ccc2c(ccc(/C=C/c3cc(C)c4cccnc4c3O)[n+]2C)c1`, for which the GI50 in the test with HOP-18 was 2.8 µM (inactive); in the test on M19-MEL, 2.99 µM (inactive); in the test on LXFL 529 it was 0.384 µM (active); with DMS-114, 0.301 µM (active); in the test with DLD-1 it was 1.28 µM (inactive).
`Cc1c(C(=O)C/C(=N/NC(=O)C[N+](C)(C)C)C(=O)Nc2ccc(Cl)cc2)[n+]([O-])c2ccccc2[n+]1[O-]`: the GI50 in the test on DMS-273, in the test with XF498, with HOP-18, in the test on SNB-78, in the test with M19-MEL and in the test on RXF 631 was > 100 µM (inactive) in each case. In addition, the GI50 with LXFL 529, in the test with DMS-114 and in the test on DLD-1 was > 100 µM (inactive) throughout.
As for `CCC12C[N+]3([O-])CCc4c([nH]c5ccccc45)C(C(=O)OC)(c4cc5c(cc4OC)N(C)C4C(O)(C(=O)OC)C(OC(C)=O)C6(CC)C=CCN7CCC54C76)CC(C3)C1O2` (stereo not drawn), the GI50 in the test on DMS-273 was 0.237 µM (active); in the test with XF498, 0.407 µM (active); with HOP-18, 16 µM (inactive); with SNB-78, 0.506 µM (active); with M19-MEL, 0.617 µM (active); in the test with LXFL 529, 0.656 µM (active). In addition, the GI50 in the test with DMS-114 was 0.36 µM (active); in the test on DLD-1, 0.883 µM (active).
For the molecule `O=C(CSc1nnc(-c2ccc(/N=C\c3ccc(Cl)cc3)cc2)o1)Nc1cccc([N+](=O)[O-])c1`, the GI50 in the test with DMS-273, in the test with HOP-18, with SNB-78, with M19-MEL, in the test with LXFL 529 and in the test on DMS-114 was > 100 µM (inactive) in each case.
Turning to `Nc1c(C(=O)Nc2ccccc2O)[n+]([O-])c2ccccc2[n+]1[O-]`, the GI50 in the test on DMS-273 was 32.6 µM (inactive); with HOP-18, > 100 µM (inactive); in the test with SNB-78 it was > 100 µM (inactive); in the test on M19-MEL it was 14.2 µM (inactive); in the test on RXF 631 it was 50.6 µM (inactive); with LXFL 529, > 100 µM (inactive). Moreover, the GI50 is 20.5 µM (inactive) in the test with DMS-114 and > 100 µM (inactive) with DLD-1.
Regarding `CC(CCC=O)CCOCc1ccccc1` (stereo not drawn), the GI50 was > 95.9 µM (inactive) in the test with DMS-273; > 100 µM (inactive) in the test on XF498; > 100 µM (inactive) in the test on HOP-18; > 100 µM (inactive) in the test on SNB-78; > 73.8 µM (inactive) in the test on M19-MEL; > 100 µM (inactive) with LXFL 529. The GI50 with DMS-114 is 61.2 µM (inactive); with DLD-1 it was > 100 µM (inactive).
As for `CC1=C2C(=CC(C)(C)C2O)C(=O)C(C)(O)C12CC2` (stereo not drawn), the GI50 in the test on DMS-273 was 0.00489 µM (active); in the test with XF498, 0.00906 µM (active); in the test with HOP-18, 0.0337 µM (active); with SNB-78 it was 0.00893 µM (active); in the test on M19-MEL it was 0.0157 µM (active); in the test with LXFL 529 it was 0.0198 µM (active). The GI50 in the test on DMS-114 was 0.00794 µM (active); with DLD-1 it was 0.00665 µM (active).
As to `CC1(Cc2ccccc2)NC(=S)NC1=O` (stereo not drawn), the GI50 in the test on DMS-273 was > 100 µM (inactive); in the test with HOP-18, 0.143 µM (active); in the test on SNB-78 it was > 100 µM (inactive); with M19-MEL it was > 100 µM (inactive); in the test with RXF 631, > 100 µM (inactive); in the test with LXFL 529 it was > 100 µM (inactive). Further, the GI50 in the test on DMS-114 and with DLD-1 was > 100 µM (inactive) throughout.
For `O=c1[nH]c(=O)n(C2OC(COP(=O)(O)OP(=O)(O)OC3OC(CO)C(O)C(O)C3O)C(O)C2O)cc1F` (stereo not drawn), the GI50 with XF498 is 0.277 µM (active); in the test on HOP-18, 3.22 µM (inactive); with SNB-78, 0.366 µM (active); in the test on M19-MEL it was 0.191 µM (active); with RXF 631, 0.0716 µM (active); with LXFL 529, 0.151 µM (active). Also, the GI50 was 1.13 µM (inactive) in the test with DMS-114 and < 0.0119 µM (active) in the test with DLD-1.
Regarding `Cc1cc(=O)oc2cc(OCc3nc4ccccc4c(=O)[nH]3)ccc12`, the GI50 in the test with DMS-273, with XF498, with HOP-18, in the test with M19-MEL, with LXFL 529 and in the test with DMS-114 was > 100 µM (inactive) throughout. Besides, the GI50 with DLD-1 is > 100 µM (inactive).
As to `CCc1c(C#N)c(=O)[nH]c(=O)n1CCN1CCN(C(=O)NCCCCCCNC(=O)N2CCN(CCn3c(CC)c(C#N)c(=O)[nH]c3=O)CC2)CC1`, the GI50 in the test on DMS-273, with XF498, in the test on HOP-18, in the test on SNB-78, in the test on M19-MEL and in the test with RXF 631 was > 100 µM (inactive) throughout. Also, the GI50 in the test with LXFL 529, in the test with DMS-114 and with DLD-1 was > 100 µM (inactive) throughout.
Consider `O=C(OCc1ccccc1)n1cccc1`, for which the GI50 is > 100 µM (inactive) with DMS-273; 78.2 µM (inactive) with XF498; > 100 µM (inactive) in the test on HOP-18; > 100 µM (inactive) in the test with SNB-78; > 100 µM (inactive) with M19-MEL; > 100 µM (inactive) in the test on RXF 631. Besides, the GI50 in the test with LXFL 529 was > 100 µM (inactive); in the test on DMS-114 it was 55.2 µM (inactive); with DLD-1, > 100 µM (inactive).
Regarding `CSc1nc2c(nc(N)n2C2OC(CO)C(O)C(O)C2O)c(=O)[nH]1` (stereo not drawn), the GI50 in the test on XF498 is 41.3 µM (inactive); in the test on HOP-18, > 100 µM (inactive); in the test on SNB-78, > 100 µM (inactive); in the test on M19-MEL, > 100 µM (inactive); in the test with RXF 631, > 100 µM (inactive); with LXFL 529, > 100 µM (inactive). The GI50 with DMS-114 and in the test on DLD-1 was > 100 µM (inactive) each time.
For `COc1cc(/C=C2\NC(=O)C3Cc4c(OC)c(C)c(OC)c(OC)c4C2N3C)c(OC)c(C)c1OC` (stereo not drawn), the GI50 in the test with DMS-273, with XF498, in the test on HOP-18, in the test on SNB-78, with M19-MEL and in the test on RXF 631 was > 100 µM (inactive) in each case. For the same molecule, the GI50 in the test with LXFL 529, with DMS-114 and in the test with DLD-1 was > 100 µM (inactive) each time.
`COc1ccccc1-c1cc(=O)c2cc(C)c(C)c(C(=O)O)c2o1`: the GI50 with DMS-273, with XF498, in the test with SNB-78, with M19-MEL, in the test with LXFL 529 and in the test with DMS-114 was > 100 µM (inactive) throughout. For the same molecule, the GI50 in the test with DLD-1 was > 100 µM (inactive).
